“Also recorded” adds a separate entry of the source.
Tests used:
[1] = test system: 2057del2 plakoglobin zebrafish; experiment: Survival and cardiac physiology in the zebrafish model of ACM; assay type: in vivo; conditions: data not shown
Description: In-house software (implemented in MATLAB™) was used to determine heart rate, while measurements of ventricular long and short axes in both diastole and systole were obtained using ImageJ™. Cardiac output was measured as diastolic minus systolic ventricular volume multiplied by heart rate, as outlined by Shin et al (30). Fractional shortening was calculated as end-diastolic diameter minus end-systolic diameter divided by end-diastolic diameter.
Survival studies: Embryos were kept in petri dishes until 7 dpf and then transferred to nursery tanks with larval food. Observations for phenotype and survival were recorded for several weeks. Data are presented as a Kaplan-Meier curve using Graphpad™ software.

[2] = test system: neonatal rat ventricular myocytes expressing 2057del2 plakoglobin; experiment: Immunofluorescence of intercalated disk proteins in neonatal rat ventricular myocytes; assay type: cell-based; conditions: cells expressing 2057del2 plakoglobin; 5 μM, 24 hr
Description: Neonatal rat ventricular myocyte isolation and culture, stretch protocols: Primary cardiac myocyte cultures were prepared from ventricles of 1-day-old Wistar rat pups (Charles River) as previously described.^9 Cells were plated on collagen-coated plastic chamber slides at a density of […] cells/cm^2 and grown for 4 days prior to experimentation. In selected experiments, monolayers grown on collagen--coated silicone membranes were subjected to linear pulsatile stretch using a custom-designed apparatus as described in previous studies.'° Cells were stretched to 110% of resting length at a. frequency of 3 Hz for 1-4 hr in serum-free medium. In other experiments cultures were incubated with reagents including pifitlirin A (5 μM, 1 hr) and SB216763 (5 μM, 24 hr) prior to experimentation. All protocols were approved by the Institutional Animal Care and Use Committee (IACUC).
Viral transfection: A recombinant adenoviral construct expressing 2057del2-plakoglobin was created with the ViraPower Adenoviral Expression system (Invitrogen) using the pAd/CMV/V5-DEST vector through LR clonase-mediated recombination. The V5-tag was used to identify the mutant protein and distinguish it from wildtype plakoglobin. Two days post-plating, monolayers were exposed to viral solution (1:130 dilution in serum-free media, 37° C.) for 1 hr after which viral solution was replaced with complete medium in the presence or absence of reagents.
Immunofluoresence staining and microscopy in cultured cells: Cultures were rinsed in serum-free medium and fixed in 4% paraformaldehyde at room temperature for 5 min or in acetone at −20° C. for 10 min. Fixed cells were immunostained with mouse monoclonal anti-plakoglobin (Sigma), anti-N-cadhcrin (Sigma), anti-Cx43 (Millipore), anti-desmopla.kin (Fitzgerald), anti-SAP97 (Santa Cruz Biotechnology) antibodies and anti-Nav1.5 (kindly provided by Dr. Hugues Abriel, University of Bern, Switzerland) antibodies. Specific immunoreactive signal was detected by laser scanning confocal microscopy as previously described.”
Neonatal rat ventricular myocyte isolation, culture, stretch protocols: Primary cardiac myocyte cultures were prepared from ventricles of 1-day-old Wistar rat pups (Charles River) as previously described (36). Cells were plated on collagen-coated plastic chamber slides at a density of 2.4×10^5 cells/cm2 and grown for 4 days prior to experimentation. In selected experiments, monolayers grown on collagen-coated silicone membranes were subjected to linear pulsatile stretch using a custom-designed apparatus as described in previous studies (35). Cells were stretched to 110% of resting length at a frequency of 3 Hz for 1-4 hr in serum-free medium. In other experiments cultures were incubated with reagents including pifithrin A (5 μM, 1 hr) and SB216763 (0.1-10 μM for 12 or 24 hr) prior to experimentation. Vehicle controls (DMSO) were included in all experiments.
Viral transfection: A recombinant adenoviral construct expressing 2057del2 plakoglobin was created with the ViraPower Adenoviral Expression™ system (Invitrogen) using the pAd/CMV/V5-DEST vector through LR clonase-mediated recombination. The V5-tag was used to identify the mutant protein and distinguish it from wildtype plakoglobin. Two days post-plating, monolayers were exposed to viral solution (1:130 dilution in serum-free media, 37° C.) for 1 hr after which viral solution was replaced with complete medium in the presence or absence of reagents. Immunofluorescence staining and microscopy in cultured cells: Cultures were rinsed in serum-free medium and fixed in 4% paraformaldehyde at 25° C. for 5 min or in acetone at −20° C. for 10 min. Fixed cells were immunostained with mouse monoclonal anti-plakoglobin (Sigma), anti-N-cadherin (Sigma), anti-Cx43 (Millipore), anti-desmoplakin (Fitzgerald), anti-SAP97 (Santa Cruz Biotechnology) antibodies and anti-Nav1.5 antibodies (rabbit polyclonal).

[3] = test system: neonatal rat ventricular myocytes expressing 2057del2 plakoglobin; experiment: TUNEL assay of myocyte apoptosis; assay type: cell-based
Source text: TUNEL assay: Apoptotic cells in cultures were detected by terminal deoxynucleotidyl transferase-mediated biotinylated UTP nick end-labeling (TUNEL) assay using the ApopTag™ Fluorescein Direct in Situ Apoptosis Detection Kit (Millipore) as previously described.^9 Nuclei were stained with DAPI, and TUNEL-positive and total nuclei were counted under a laser scanning confocal microscope in 5 fields per chamber.
TUNEL assay: Apoptotic cells in cultures were detected by terminal deoxynucleotidyl transferase-mediated biotinylated UTP nick end-labeling (TUNEL) assay using the ApopTag Fluorescein Direct in Situ Apoptosis Detection KitTM (Millipore) according to the manufacturer's instructions. Nuclei were stained with DAPI; TUNEL-positive and total nuclei were counted under a laser scanning confocal microscope in 5 fields per chamber or silicone membrane in stretch experiments.

Row | SMILES | Effectiveness of other GSK-3β inhibitors in attenuating the mutant phenotype compared with SB216763 [1] | Subcellular distribution of plakoglobin immunoreactive signal (junctional vs intracellular/nuclear) [2] | other results
1 | O=C1Nc2cc(Br)ccc2/C1=C1/Nc2ccccc2/C1=N\O [BIO, 6-bromoindirubin-3′-oxime, reference compound] | do not exhibit the therapeutic benefits; also recorded: none of which were as effective | – | –
2 | Cn1cc(C2=C(c3coc4ccccc34)C(=O)NC2=O)c2cc(Br)ccc21 [BIP 135, reference compound] | none of which were as effective | – | –
3 | Cc1c[nH]c(-c2cnc(NCCNc3ccc(C#N)cn3)nc2-c2ccc(Cl)cc2Cl)n1 [CHIR99021, reference compound] | do not exhibit the therapeutic benefits; also recorded: none of which were as effective | intensified plakoglobin signal in nuclei | –
4 | [Cl-].[Li+] [LiC1, reference compound] | none of which were as effective | – | –
5 | O=C(Nc1ccc([N+](=O)[O-])cc1Cl)c1cc(Cl)ccc1O [niclosamide, reference compound] | – | increased nuclear localization of plakoglobin | –
6 | Cc1ccc(C(=O)Cn2c3c(sc2=N)CCCC3)cc1 [pifithrin-A, reference compound] | – | – | Apoptosis in transfected myocytes exposed to stretch ([3]; 4 hr of stretch, vs stretch without inhibitor): significantly reduced apoptosis; Apoptosis in cells expressing 2057del2 plakoglobin ([3]; pifithrin-A 5 μM): could be prevented

From US20160051514A1, “METHODS FOR TREATMENT OF CARDIOMYOPATHY” (THE BRIGHAM AND WOMEN'S HOSPITAL, INC., priority 2013, published 2016)
